This is an account of results in patent publication US6900194B1, “Use of substituted 4-biarylbutyric and 5-biarylpentanoic acid derivatives as matrix metalloprotease inhibitors for the treatment of respiratory diseases” (Bayer Aktiengesellschaft, priority 1998, dated 2005).

What all share (type): biochemical
Test [1] has as its target T1, MMP-7 (Matrilysin) (Homo sapiens, UniProt P09237).
T1 construct: Catalytic domain expressed in E. coli using the pET 14 vector, provided by Dr Steve Shapiro; host or cells: E. coli
T1 sequence (P09237 95-267): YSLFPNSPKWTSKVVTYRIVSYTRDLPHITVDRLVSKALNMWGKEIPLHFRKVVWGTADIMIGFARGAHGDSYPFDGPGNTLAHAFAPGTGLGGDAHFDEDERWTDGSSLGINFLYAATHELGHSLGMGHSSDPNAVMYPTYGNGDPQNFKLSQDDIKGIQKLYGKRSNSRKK
Put plainly: P218 quenched fluorescence assay, MMP-7. The source says:
(§1) P218 Quenched Fluorescence Assay for MMP Inhibition:
(§2) This assay is adapted from the one described by Knight et al., FEBS Letters, 296, 263-266 (1992) for MMP-3 and a related substrate. The rate of hydrolysis of the synthetic substrate H-MCA-Pro-Lys-Pro-Leu-Ala-Leu-DPA-Ala-Arg-NH2 (P218) by the respective MMPs is monitored fluorometrically, using an excitation wavelength of 340 nm and an emission wavelength of 395 nm, in the presence or absence of the test compounds. The substrate is made up initially in 100% DMSO to a concentration of 1×10^−2 M, then diluted in assay buffer to a final concentration of 20 μM. […] The total assay volume in a 96 well microtitre plate is 150 μl, Cleavage of the substrate between the Leu-Ala residues allows the fluorescence of the MCA group to be detected on a fluorometer (Cytofluor II) following excitation at 340 nm and emission at 395 nm. Change in fluorescence is continually monitored for a 40 min period.
(§3) The Ki's are calculated using the method described by Williams and Morrison, Methods in Enzymology, 63, 437-467 (1979) to measure Ki apparent for tight binding inhibitors, and is summarised as follows: [I]0/(1−vi/v0)=Ki apparent ×vi/v0+[E]0 [I]0 and [E]0 are inhibitor and enzyme concentrations, and vi/v0 are reaction velocities with/without inhibitor. […]
(§4) IC50's are determined at each enzyme concentration using Xlfit software. […]

In test [2] the target is T2, MMP-9 (Gelatinase B) (Homo sapiens, UniProt P14780).
T2 construct: polymorphonuclear leukocytes (PMN) preparations are isolated as described above from 3 or more units of freshly drawn whole blood; from tissue; host or cells: polymorphonuclear leukocytes from whole blood, stimulated with PMA; supernatant purified
Put plainly: P218 quenched fluorescence assay, MMP-9. The conditions noted are these: read-out: Potency Ki vs. MMP-9.
Description: as §1, §2, §3, §4

In test [3] the target is MMP-13 (Human Collagenase 3) (Homo sapiens, UniProt P45452). Briefly: P218 quenched fluorescence assay, MMP-13 (human).
Description: as §1, §2, §3, §4

pIC50, pKi: −log10 of the molar value.

T2 sequence (P14780 94-707): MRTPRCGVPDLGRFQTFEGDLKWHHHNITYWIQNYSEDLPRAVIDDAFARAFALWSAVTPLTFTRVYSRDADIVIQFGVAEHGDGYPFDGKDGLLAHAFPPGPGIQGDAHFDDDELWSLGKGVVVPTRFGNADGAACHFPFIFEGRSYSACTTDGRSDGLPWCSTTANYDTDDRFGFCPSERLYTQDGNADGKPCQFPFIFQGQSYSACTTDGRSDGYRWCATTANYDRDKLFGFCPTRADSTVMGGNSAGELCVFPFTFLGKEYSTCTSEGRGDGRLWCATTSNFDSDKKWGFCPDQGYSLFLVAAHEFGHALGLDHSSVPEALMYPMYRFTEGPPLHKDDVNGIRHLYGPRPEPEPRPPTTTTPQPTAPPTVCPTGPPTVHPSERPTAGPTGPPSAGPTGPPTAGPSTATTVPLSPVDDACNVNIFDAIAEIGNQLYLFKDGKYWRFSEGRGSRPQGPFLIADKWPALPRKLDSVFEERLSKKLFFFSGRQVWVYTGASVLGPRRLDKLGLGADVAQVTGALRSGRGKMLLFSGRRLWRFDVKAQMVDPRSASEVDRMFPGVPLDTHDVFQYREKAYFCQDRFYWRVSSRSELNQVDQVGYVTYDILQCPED

As usually defined, the pKi is the negative decadic logarithm of the Ki, by convention in mol/L. The term pIC50 denotes the negative decadic logarithm of the IC50, by convention in mol/L. Regarding `CCOc1ccc(-c2ccc(C(=O)CC(CCN3C(=O)c4ccccc4C3=O)C(=O)O)cc2)cc1` (single isomer, unassigned; (+)) [Example 2, (+)-2-[2-(1,3-Dioxo-1,3-dihydro-2H-isoindol-2-yl)ethyl]-4-(4′-ethoxy[1,1′-biphenyl]-4-yl)-4-oxobutanoic acid], in test [1] (at 30 nM, read-out: % inh. of MMP-7), the inhibition at 0.03 µM turned out to be 38%. Further, the pKi in test [2] was 8.92. Further, the pIC50 in test [3] (read-out: IC50 vs. MMP-13 (value marked *)) was 7.15.

As to `O=C(CC(CCN1C(=O)c2ccccc2C1=O)C(=O)O)c1ccc(-c2ccc(Cl)cc2)cc1` (single isomer, unassigned; (+)) [Example 4, (+)-4-(4′-Chloro[1,1′-biphenyl]4-yl)-2-[2-(1,3-dioxo-1,3-dihydro-2H-isoindol-2-yl)ethyl]-4-oxobutanoic acid], the pKi was less than 5.52 in test [1] (read-out: Potency Ki vs. MMP-7), 9.15 in test [2] and 8.25 in test [3] (read-out: Potency Ki vs. MMP-13).
